Values quoted from earlier work, collected in patent EP2479272A1, “METHOD FOR PRODUCING MONATIN” (Ajinomoto Co., Inc., priority 2010, dated 2012).

Conditions: compared with sucrose; from Patent Document 1

## N[C@@H](CC(O)(Cc1c[nH]c2ccccc12)C(=O)O)C(=O)O (stereo partly shown) [Monatin, 4-(indole-3-yl-methyl)-4-hydroxy-glutamic acid]
  sweetness: one thousand and several hundreds times sweeter than sucrose
